Read-outs that look alike come from different tables or passages of the source.
Experiments:
[1] = system: Vero/hSLAM cells; details: for toxicity at any of the time points tested: sample wells or parallel drug alone samples, 5 μM
[2] = system: SARS-CoV-2 isolate Australia/VIC01/2020; assay: SARS-CoV-2 infected Vero/hSLAM cells treated after infection, viral RNA by real-time RT-PCR; type: cell-based
[3] = system: SARS-CoV-2; assay: Prophylactic pre-treatment of Vero/hSLAM cells before SARS-CoV-2 infection, viral load by real-time PCR of supernatant; type: cell-based
Experimental: Vero/hSLAM cells were pre-treated with DMSO, ivermectin or Moxidectin at the indicated concentrations for 2 h prior to infection with SARS-CoV-2 (MOI=0.01) for 2 h in the presence of DMSO or drugs. Samples were washed post-adsorption and incubated in the fresh media containing DMSO or drugs for 48 h before quantitation of viral load using real-time PCR of supernatant. The results shown in FIG. 5 represent mean±SD (n=6) relative to DMSO alone. […] Average IC50 values for CALU-3 cells compared to Vero/hSLAM cells assayed under the same conditions are shown (Table, right, n=independent experiments).

[4] = system: seasonal coronavirus 229E; assay: Huh-7 cells infected with 229E, treated after infection, viral load by real-time PCR of supernatant; type: cell-based; details: Huh-7, 229E MOI 0.01, 48 h post infection, read-out: IC50 (FIG. 6, panels A/B)
Experimental: Huh-7 cells were infected with 229E (MOI=0.01) for 2 h prior to addition of vehicle (DMSO), Ivermectin (FIG. 6, panel A) or Moxidectin (FIG. 6, panel B) at the indicated concentrations. Samples were taken 48 h post infection for quantitation of viral load using real-time PCR of supernatant. Results represent mean±SD (n=6) relative to DMSO alone.

[5] = system: SARS-CoV-2 clinical isolate Australia/VIC01/2020; assay: SARS-CoV-2 infected CALU-3 (human lung) cells, viral load by real-time PCR of supernatant; type: cell-based
Experimental: CALU-3 (human lung) cells were infected with SARS-CoV-2 clinical isolate Australia/VIC01/2020 (MOI=0.01) for 2 h prior to addition of vehicle (DMSO) or Ivermectin at the indicated concentrations indicated in FIG. 3. Samples were taken 24 h post infection for quantitation of viral load using real-time PCR of supernatant. The results illustrated in FIG. 3 represent mean±SD (n=6) relative to DMSO alone.

[6] = system: seasonal coronavirus 229E; assay: Prophylactic pre-treatment of Huh-7 cells before 229E infection, viral load by real-time PCR; type: cell-based; details: Huh-7 pre-treated 2 h, 229E MOI 0.01, 48 h; read-out: IC50 (FIG. 6, panel C), prophylactic
Experimental: For assessment of prophylactic potential Huh-7 cells were pre-treated with DMSO or ivermectin at the indicated concentrations for 2 h prior to infection with 229E (MOI=0.01) for 2 h in the presence of DMSO or ivermectin (FIG. 6, panel C). Samples (n=5) were washed post-adsorption and incubated in the fresh media containing DMSO or ivermectin for 48 h before quantitation of viral load as above.

[7] = 48 h, compared to vehicle DMSO, Vero/hSLAM, E gene, concentration not restated (5 μM in FIG. 2, panel A)
[8] = 5 μM, 24 h, MOI 0.1, Vero/hSLAM, compared to vehicle DMSO

For `CO/N=C1\C[C@]2(C[C@@H]3C[C@@H](C/C=C(\C)C[C@@H](C)/C=C/C=C4\CO[C@@H]5[C@H](O)C(C)=C[C@@H](C(=O)O3)[C@]45O)O2)O[C@H](/C(C)=C/C(C)C)[C@H]1C` [moxidectin], the “toxicity at any of the time points tested” value [1] was “No toxicity”, the “reduction in viral RNA present in the supernatant (released virions)” value (shortened to “reduction in viral RNA present”) [2, 7] was 99.9% and the IC50 ([2]; Severe acute respiratory syndrome coronavirus 2, 24 h, supernatant, E gene, MOI 0.01, Vero/hSLAM, read-out: Calculated IC50 (FIG. 2, panel B)) was 1300 nM. The IC50 ([2]; Severe acute respiratory syndrome coronavirus 2, 48 h, supernatant, E gene, MOI 0.01, Vero/hSLAM, read-out: Calculated IC50 (FIG. 2, panel C)) was 1300 nM, the IC50 ([2]; Severe acute respiratory syndrome coronavirus 2, 72 h, supernatant, E gene, MOI 0.01, Vero/hSLAM, read-out: Calculated IC50 (FIG. 2, panel D)) was 2400 nM and the IC50 ([3]; Severe acute respiratory syndrome coronavirus 2, Vero, read-out: IC50 +/− SEM (n*), treated prophylactically) was 1660 nM. For the same compound, the IC50 ([3]; Severe acute respiratory syndrome coronavirus 2, pre-treated 2 h, MOI 0.01, 48 h, supernatant, Vero/hSLAM, read-out: IC50 (FIG. 5), prophylactic) was 1800 nM and the IC50 ([4]; Human coronavirus 229E) was 240 nM.
In the case of ivermectin, the “toxicity at any of the time points tested” value [1] is reported as “No toxicity”, the “toxicity at any of the concentrations tested” value ([1]; serial dilutions, 48 h) is reported as “no toxicity” and the “reduction in cell-associated viral RNA (unreleased and unpackaged virions)” value [2, 8] is reported as 99.8%. For the same compound, the “reduction in viral RNA present” value [2, 8] was 93%, the “reduction in viral RNA in both supernatant and cell pellets” value ([2]; 5 μM, 48 h, E gene, Vero/hSLAM) was over 5000 and the “reduction in viral RNA (equating to the >5000 reduction)” value ([2]; 5 μM, 48 h, supernatant and cell pellets, Vero/hSLAM) was 99.98%. The “further reduction in viral RNA at 72 h” value ([2]; 5 μM, 72 h versus 48 h, MOI 0.1, Vero/hSLAM) was “no further reduction”, the IC50 ([2]; 24 h, supernatant, E gene, MOI 0.01, Vero/hSLAM, read-out: Calculated IC50 (FIG. 2, panel B)) was 1400 nM and the “reduction in viral RNA present” value [2, 7] was 99.5%. For the same compound, the IC50 ([2]; 48 h, supernatant, E gene, MOI 0.01, Vero/hSLAM, read-out: Calculated IC50 (FIG. 2, panel C)) was 2200 nM, the IC50 ([2]; 72 h, supernatant, E gene, MOI 0.01, Vero/hSLAM, read-out: Calculated IC50 (FIG. 2, panel D)) was 3100 nM and the IC50 ([2]; E gene, 48 h, treated 2 h post infection, MOI 0.1, Vero/hSLAM, panels C/D = supernatant and cell pellets, read-out: IC50 of ivermectin treatment (FIG. 1, panel C)) was 2800 nM. The IC50 ([2]; E gene, 48 h, treated 2 h post infection, MOI 0.1, Vero/hSLAM, panels C/D = supernatant and cell pellets, read-out: IC50 of ivermectin treatment (FIG. 1, panel D)) was 2400 nM, the IC50 ([2]; RdRp gene primers, 48 h, MOI 0.1, Vero/hSLAM, panels E/F = released (supernatant) and cell-associated virus, read-out: IC50 of ivermectin treatment (FIG. 1, panel E)) was 2500 nM and the IC50 ([2]; RdRp gene primers, 48 h, MOI 0.1, Vero/hSLAM, panels E/F = released (supernatant) and cell-associated virus, read-out: IC50 of ivermectin treatment (FIG. 1, panel F)) was 2200 nM. It also gave an IC50 ([2]; average of independent experiments, Vero/hSLAM assayed under the same conditions as CALU-3, read-out: IC50 +/− SEM (n*), Vero/hSLAM) of 2370 nM, an IC50 ([5]; CALU-3, 24 h post infection, supernatant, MOI 0.01, read-out: IC50 (FIG. 3)) of 420 nM and an IC50 ([5]; average of independent experiments, CALU-3, read-out: IC50 +/− SEM (n*), CALU-3) of 410 nM. It also gave an IC50 ([3]; average of independent experiments, Vero/hSLAM, read-out: IC50 +/− SEM (n*), treated prophylactically) of 1730 nM, an IC50 ([3]; pre-treated 2 h, MOI 0.01, 48 h, supernatant, Vero/hSLAM, read-out: IC50 (FIG. 5), prophylactic) of 1600 nM and an IC50 [6] of 2060 nM. It also gave an IC50 [4] of 180 nM.
